Assay results reported in patent publication US8222275B2, “Biarylcarboxyarylamides as vanilloid-1 receptor modulators” (Pharmeste S.R.L., priority 2006, dated 2012).

How the values were obtained:
[1] = target: T1, TRPV1 expressed in rat spinal cord (Rattus norvegicus, UniProt O35433); test: Radioligand binding assay, [3H]-RTX, rat spinal cord membranes
T1 construct: TRPV1 expressed in rat spinal cord; from tissue; host or cells: rat (Sprague-Dawley) spinal cord membranes
Method: Radioligand Binding Assay
Male Sprague-Dawley rats with body weight between 250 to 350 g at the time for testing were used. For binding assays rats were sacrificed by decapitation under anesthesia and the spinal cord was removed and disrupted using a Polytron tissue homogenizer in ice cold buffer containing 5 mM KCl, 5.8 mM NaCl, 0.75 mM CaCl2, 2 mM MgCl2, 320 mM sucrose, 10 mM Hepes, pH 8.6.^5 The homogenized tissue was centrifuged at 1000×g for 10 min at 4° C. and the supernatant was centrifuged again at 35000×g for 30 min at 4° C. (Beckman Avanti J25). The pellet was resuspended in the same buffer as described above and used in binding experiments. In saturation experiments, 150 μg protein/sample from membrane suspensions were incubated with [^3H]-Resiniferatoxin ([^3H]-RTX) (0.003-3 nM) in the assay buffer containing 0.25 mg/ml fatty acid-free bovine serum albumin at 37° C. for 60 min. […]
Non specific binding was evaluated in the presence of 1 μM RTX. […] The tip of the microcentrifuge tube containing the pellet was cut off and the radioactivity was determined by scintillation counting (Packard 2500 TR). Protein concentration was determined according to a Bio-Rad method with bovine serum albumin as a standard reference (Bradford, 1976). Saturation and competition studies were analyzed with the Ligand program.^6

[2] = target: T2, TRPV1 expressing dorsal root ganglia neurons (Rattus norvegicus, UniProt O35433); test: Ca2+ fluorescence measurements in cultured rat dorsal root ganglia neurones; type: cell-based; conditions: 0.1 μM capsaicin, mean and 95% fiducial limits, read-out: IC50 for inhibition of capsaicin-evoked [Ca2+]i mobilization
T2 construct: Dorsal root ganglia were removed and placed in cold phosphate buffered solution; endogenous in cells; host or cells: primary cultured rat dorsal root ganglia neurons
Method: Ca^2+ Fluorescence Measurements in Cultured Rat Dorsal Root Ganglia Neurones
Adults rats were terminally anaesthetized and decapitated. Dorsal root ganglia were removed and placed in cold phosphate buffered solution (PBS) before being transferred to collagenase (10 mg/ml), trypsin (5 mg/ml) and DNAse (1 mg/ml) for 35 min at 37° C. The ganglia, placed in cold DMEM supplemented with 10% fetal bovine serum, 2 mM L-glutamine, 100 U/ml penicillin and 100 μg/ml streptomycin, were dissociated in single cells by several passages through a series of syringe needles (23 G down to 25 G). The medium and the ganglia were filtered to remove debris, topped up with 8 ml of DMEM medium and centrifuged (200×g for 5 min). The final cell pellet was re-suspended in DMEM medium [supplemented with 100 ng/ml mouse Nerve Growth Factor (mouse-NGF-7S) and cytosine-β-D-arabinofuranoside free base (ARA-C) 2.5 μM]. […] Fura-2-AM-ester was excited at […] to indicate relative [Ca^2+]i changes by the F340/F380 ratio recorded with a dynamic image analysis system (Laboratory Automation 2.0, RCS, Florence, Italy) and the cells were allowed (at least 10 min) to attain a stable fluorescence before beginning the experiment. […]

[3] = tested on: capsaicin-induced tactile allodynia; test: Capsaicin-induced secondary allodynia in rat; type: in vivo; conditions: 30 μmol/kg oral 2 hours prior to capsaicin (20 nmols/50 μl/paw), evaluated 90 min after challenge
Method: Capsaicin-Induced Secondary Allodynia in Rat
Capsaicin (20 nmols/50 μl/paw) was injected in the plantar surface of the glabrous skin of the right paw of rats anesthetized with diethyl ether (Chaplan et al., 1994). Compound V394 was orally administrated (30 μmol/kg) 2 hours prior to capsaicin injection. Tactile allodynia was evaluated 90 min after capsaicin challenge.

T1 sequence (O35433 whole entry): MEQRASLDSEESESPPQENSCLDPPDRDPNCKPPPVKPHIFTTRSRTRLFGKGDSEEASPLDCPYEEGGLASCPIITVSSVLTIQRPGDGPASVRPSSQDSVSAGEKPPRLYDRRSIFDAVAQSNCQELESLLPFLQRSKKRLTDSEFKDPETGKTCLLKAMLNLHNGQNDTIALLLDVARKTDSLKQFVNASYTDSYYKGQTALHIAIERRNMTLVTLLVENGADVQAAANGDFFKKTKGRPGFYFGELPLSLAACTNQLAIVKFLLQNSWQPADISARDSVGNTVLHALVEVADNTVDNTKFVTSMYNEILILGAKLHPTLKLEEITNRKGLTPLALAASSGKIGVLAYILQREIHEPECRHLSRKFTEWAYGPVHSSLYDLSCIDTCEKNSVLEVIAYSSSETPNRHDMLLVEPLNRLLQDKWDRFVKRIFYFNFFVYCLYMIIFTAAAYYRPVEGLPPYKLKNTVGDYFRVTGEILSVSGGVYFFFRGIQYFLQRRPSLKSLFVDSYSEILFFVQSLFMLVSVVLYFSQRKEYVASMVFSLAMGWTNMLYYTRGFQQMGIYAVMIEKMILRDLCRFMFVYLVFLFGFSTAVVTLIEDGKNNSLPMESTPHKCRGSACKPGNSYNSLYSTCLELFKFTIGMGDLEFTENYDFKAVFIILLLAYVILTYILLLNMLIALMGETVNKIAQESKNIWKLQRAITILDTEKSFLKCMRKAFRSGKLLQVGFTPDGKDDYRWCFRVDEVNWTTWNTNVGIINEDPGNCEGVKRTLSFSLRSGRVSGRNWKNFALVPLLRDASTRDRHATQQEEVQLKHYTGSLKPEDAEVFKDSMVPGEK
T2 sequence (O35433 whole entry): as above

Compound	Kd ([1]; saturation experiments, [3H]-RTX 0.003-3 nM, read-out: KD value, saturation curve of [3H]-RTX)	Ki ([1]; [3H]RTX 0.4 nM, 37° C. 60 min, 95% fiducial limits in brackets, read-out: Ki value, competition binding of [3H]-RTX)	IC50 [2]	preventive effect against the pro-allodinic effect of capsaicin [3]	melting point
C=C(C)[C@]12C[C@@H](C)[C@@]34O[C@](Cc5ccccc5)(O[C@@H]1[C@@H]3C=C(COC(=O)Cc1ccc(O)c(OC)c1)C[C@]1(O)C(=O)C(C)=C[C@@H]41)O2 [[^3H]-RTX, [^3H]-Resiniferatoxin, reference compound]	210 pM	–	–	–	–
O=C(Nc1ccc(Cl)cc1)c1ccc(-c2cccc3cnccc23)nc1 [V394, N-(4-chlorophenyl)-6-(isoquinolin-5-yl)pyridine-3-carboxamide]	–	15000 pM	830 pM	55%	258 °C
